Laboratory results as given in ChEMBL document CHEMBL1201862, “PubChem BioAssay data set” (2004).
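Dose response: 5 concentrations. Exposure: 48 h. Format: 96-well plates. Endpoint: linear interpolation; highest concentration if not reached. At the GI50, growth is halved.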 Activity calls are given as the source filed them. No stated cut-off is given here; in the data, active = GI50 up to about 1.1 µM and inactive = higher. Where a SMILES comes first, the peptide text is derived from it. [ ]: non-standard residue; d: D form. The star is where a group is joined. Phe(2-OMe) = COc1ccccc1C[CH](N)C(=O)O; Cbz = O=C(OCc1ccccc1)*; OBn = c1ccc(CO*)cc1

Legend:
Experiment in all cases: DTP human tumour cell line panel, 48 h
IGROV-1 = tested on: IGROV-1
T47D = tested on: T47D
SK-MEL-5 = tested on: SK-MEL-5
HT-29 = tested on: HT-29
MCF7 = tested on: MCF7
UO-31 = tested on: UO-31
SF-539 = tested on: SF-539
NCI-H460 = tested on: NCI-H460
TK-10 = tested on: TK-10
LOX IMVI = tested on: LOX IMVI
NCI-H23 = tested on: NCI-H23
OVCAR-8 = tested on: OVCAR-8
U-251 = tested on: U-251
SK-MEL-2 = tested on: SK-MEL-2
SNB-19 = tested on: SNB-19
NCI/ADR-RES = tested on: NCI/ADR-RES
K562 = tested on: K562
MDA-N = tested on: MDA-N
CAKI-1 = tested on: CAKI-1
EKVX = tested on: EKVX

Structure (SMILES)	GI50 (IGROV-1)	GI50 (T47D)	GI50 (SK-MEL-5)	GI50 (HT-29)	GI50 (MCF7)	GI50 (UO-31)	GI50 (SF-539)	GI50 (NCI-H460)	GI50 (TK-10)	GI50 (LOX IMVI)	GI50 (NCI-H23)	GI50 (OVCAR-8)	GI50 (U-251)	GI50 (SK-MEL-2)	GI50 (SNB-19)	GI50 (NCI/ADR-RES)	GI50 (K562)	GI50 (MDA-N)	GI50 (CAKI-1)	GI50 (EKVX)
COc1ccc(/C=C2\N=C(SC)N(C)C2=O)cc1	48 µM (inactive)	42.6 µM (inactive)	42.3 µM (inactive)	46.1 µM (inactive)	49.4 µM (inactive)	27 µM (inactive)	92 µM (inactive)	99.1 µM (inactive)	> 100 µM (inactive)	75.2 µM (inactive)	> 100 µM (inactive)	> 100 µM (inactive)	89.7 µM (inactive)	> 100 µM (inactive)	> 100 µM (inactive)	86.9 µM (inactive)	50.9 µM (inactive)	–	–	–
N#Cc1nc(-c2ccsc2)oc1N	71.8 µM (inactive)	–	> 100 µM (inactive)	> 100 µM (inactive)	> 100 µM (inactive)	64.1 µM (inactive)	–	–	> 100 µM (inactive)	> 100 µM (inactive)	–	> 100 µM (inactive)	> 100 µM (inactive)	> 100 µM (inactive)	> 100 µM (inactive)	–	> 100 µM (inactive)	> 100 µM (inactive)	> 100 µM (inactive)	> 100 µM (inactive)
O=C1CCC(=O)C1=NNc1cc(Cl)cc(Cl)c1	> 100 µM (inactive)	–	61.5 µM (inactive)	> 100 µM (inactive)	–	> 100 µM (inactive)	> 100 µM (inactive)	71.8 µM (inactive)	> 100 µM (inactive)	> 100 µM (inactive)	> 100 µM (inactive)	> 100 µM (inactive)	69.2 µM (inactive)	> 100 µM (inactive)	> 100 µM (inactive)	–	> 100 µM (inactive)	–	> 100 µM (inactive)	> 100 µM (inactive)
CCOc1snc(C(Cl)(Cl)Cl)c1Cl	31 µM (inactive)	–	7.83 µM (inactive)	15.5 µM (inactive)	25 µM (inactive)	5.58 µM (inactive)	60.5 µM (inactive)	26.9 µM (inactive)	23.1 µM (inactive)	16.9 µM (inactive)	12 µM (inactive)	24.4 µM (inactive)	27.7 µM (inactive)	–	6.75 µM (inactive)	–	9.33 µM (inactive)	21.9 µM (inactive)	12.3 µM (inactive)	15.8 µM (inactive)
COC(=O)C1=CN(C2CCCCC2)C2(c3ccccc3)c3ccccc3C(=O)OC(=O)C12 (configuration not stated)	> 100 µM (inactive)	–	> 100 µM (inactive)	62.2 µM (inactive)	> 100 µM (inactive)	> 100 µM (inactive)	> 100 µM (inactive)	80.2 µM (inactive)	> 100 µM (inactive)	42.3 µM (inactive)	> 100 µM (inactive)	> 100 µM (inactive)	99.3 µM (inactive)	> 100 µM (inactive)	> 100 µM (inactive)	> 100 µM (inactive)	20.1 µM (inactive)	58.5 µM (inactive)	46.8 µM (inactive)	> 100 µM (inactive)
O=C1CSc2ccncc2N1	> 100 µM (inactive)	–	> 100 µM (inactive)	> 100 µM (inactive)	–	> 100 µM (inactive)	> 100 µM (inactive)	> 100 µM (inactive)	> 100 µM (inactive)	> 100 µM (inactive)	> 100 µM (inactive)	> 100 µM (inactive)	> 100 µM (inactive)	> 100 µM (inactive)	8.93 µM (inactive)	–	> 100 µM (inactive)	–	> 100 µM (inactive)	> 100 µM (inactive)
COc1nc(NC2OC(COC(C)=O)C(OC(C)=O)C(OC(C)=O)C2OC(C)=O)c2c(OC(C)=O)c(C)c(=O)oc2n1 (configuration not stated)	> 100 µM (inactive)	–	> 100 µM (inactive)	> 100 µM (inactive)	–	> 100 µM (inactive)	> 100 µM (inactive)	1.67 µM (inactive)	> 100 µM (inactive)	> 100 µM (inactive)	> 100 µM (inactive)	> 100 µM (inactive)	> 100 µM (inactive)	> 100 µM (inactive)	> 100 µM (inactive)	–	> 100 µM (inactive)	–	> 100 µM (inactive)	> 100 µM (inactive)
COc1ccc2c(c1)C(N)CC2=O (configuration not stated)	> 100 µM (inactive)	> 100 µM (inactive)	> 100 µM (inactive)	> 100 µM (inactive)	> 100 µM (inactive)	> 100 µM (inactive)	> 100 µM (inactive)	–	> 100 µM (inactive)	–	> 100 µM (inactive)	> 100 µM (inactive)	> 100 µM (inactive)	27 µM (inactive)	> 100 µM (inactive)	> 100 µM (inactive)	> 100 µM (inactive)	–	> 100 µM (inactive)	> 100 µM (inactive)
OCC(CO)C1c2cccc3ccc4cccc1c4c23	> 100 µM (inactive)	–	> 100 µM (inactive)	> 100 µM (inactive)	–	62.5 µM (inactive)	> 100 µM (inactive)	> 100 µM (inactive)	> 100 µM (inactive)	> 100 µM (inactive)	> 100 µM (inactive)	> 100 µM (inactive)	> 100 µM (inactive)	> 100 µM (inactive)	> 100 µM (inactive)	–	> 100 µM (inactive)	–	> 100 µM (inactive)	87.9 µM (inactive)
COC(=O)C(=O)C(C(=O)C=C(C)C)C(=O)C(=O)Nc1ccc(C)cc1C (configuration not stated)	> 100 µM (inactive)	–	> 100 µM (inactive)	> 100 µM (inactive)	–	> 100 µM (inactive)	> 100 µM (inactive)	> 100 µM (inactive)	> 100 µM (inactive)	> 100 µM (inactive)	> 100 µM (inactive)	> 100 µM (inactive)	> 100 µM (inactive)	> 100 µM (inactive)	> 100 µM (inactive)	–	> 100 µM (inactive)	–	> 100 µM (inactive)	> 100 µM (inactive)
COc1ccc(-n2c3c(c4cc(O)ccc42)Cc2ccccc2C3=O)cc1	29.7 µM (inactive)	–	39.2 µM (inactive)	53.2 µM (inactive)	9.16 µM (inactive)	> 100 µM (inactive)	34.9 µM (inactive)	16.1 µM (inactive)	58.7 µM (inactive)	35.9 µM (inactive)	> 100 µM (inactive)	48 µM (inactive)	45.2 µM (inactive)	65.3 µM (inactive)	> 100 µM (inactive)	73.8 µM (inactive)	31.3 µM (inactive)	65.6 µM (inactive)	30.2 µM (inactive)	–
Cc1cc(C)nc(NS(=O)(=O)c2ccc(NC(=O)c3ccc(Cl)c4c(Nc5ccc(S(=O)(=O)Nc6nc(C)cc(C)n6)cc5)c5ccccc5nc34)cc2)n1	3.31 µM (inactive)	–	17.7 µM (inactive)	31.7 µM (inactive)	–	24.9 µM (inactive)	2.22 µM (inactive)	17 µM (inactive)	33.4 µM (inactive)	3.91 µM (inactive)	3.75 µM (inactive)	17.4 µM (inactive)	3.24 µM (inactive)	13.7 µM (inactive)	4.89 µM (inactive)	–	9.95 µM (inactive)	–	42.3 µM (inactive)	48.1 µM (inactive)
N=C(N)NCCCC(NC(=O)c1cccc2c(=O)c3ccccc3[nH]c12)C(=O)O (configuration not stated)	> 100 µM (inactive)	–	> 100 µM (inactive)	> 100 µM (inactive)	> 100 µM (inactive)	> 100 µM (inactive)	–	–	> 100 µM (inactive)	> 100 µM (inactive)	> 100 µM (inactive)	> 100 µM (inactive)	> 100 µM (inactive)	> 100 µM (inactive)	> 100 µM (inactive)	> 100 µM (inactive)	> 100 µM (inactive)	> 100 µM (inactive)	–	> 100 µM (inactive)
O=C1Cc2c([nH]c3ccccc23)-c2cc(Br)ccc2N1	> 100 µM (inactive)	–	> 100 µM (inactive)	> 100 µM (inactive)	–	> 100 µM (inactive)	> 100 µM (inactive)	> 100 µM (inactive)	> 100 µM (inactive)	> 100 µM (inactive)	> 100 µM (inactive)	> 100 µM (inactive)	> 100 µM (inactive)	> 100 µM (inactive)	> 100 µM (inactive)	–	> 100 µM (inactive)	–	> 100 µM (inactive)	> 100 µM (inactive)
COc1ccc2[nH]c3c(cnn4cnnc34)c2c1	> 100 µM (inactive)	–	0.262 µM (active)	> 100 µM (inactive)	–	> 100 µM (inactive)	> 100 µM (inactive)	> 100 µM (inactive)	> 100 µM (inactive)	> 100 µM (inactive)	> 100 µM (inactive)	> 100 µM (inactive)	> 100 µM (inactive)	> 100 µM (inactive)	> 100 µM (inactive)	–	> 100 µM (inactive)	–	> 100 µM (inactive)	23.3 µM (inactive)
COC(=O)C(Cc1ccccc1OC)NC(=O)C(CC(=O)OCc1ccccc1)NC(=O)OCc1ccccc1 (configuration not stated) (Cbz-Asp(OBn)-[Phe(2-OMe)]-OMe; configuration not given here)	> 100 µM (inactive)	–	> 100 µM (inactive)	65.3 µM (inactive)	54 µM (inactive)	64.6 µM (inactive)	–	34.4 µM (inactive)	> 100 µM (inactive)	–	> 100 µM (inactive)	> 100 µM (inactive)	97.5 µM (inactive)	> 100 µM (inactive)	> 100 µM (inactive)	–	61.5 µM (inactive)	95.7 µM (inactive)	–	> 100 µM (inactive)
